How the values were obtained:
[1] = target: T1, hNav1.3 (Homo sapiens, UniProt Q9NY46); test: voltage clamp currents in mammalian cells stably transfected with cloned ion channel cDNA, hNav1.3; assay type: cell-based
T1 construct: expressed in transfected cells
From the text: (§1) Nonlinear least squares fits of the current ratio data yielded the best fit value for the IC50 concentration. A positive control was included for each channel tested in the study.

[2] = target: T2, hHCN4 (Homo sapiens, UniProt Q9Y3Q4); test: voltage clamp currents in mammalian cells stably transfected with cloned ion channel cDNA, hHCN4; assay type: cell-based
T2 construct: expressed in transfected cells
T2 sequence (Q9Y3Q4 1-1203): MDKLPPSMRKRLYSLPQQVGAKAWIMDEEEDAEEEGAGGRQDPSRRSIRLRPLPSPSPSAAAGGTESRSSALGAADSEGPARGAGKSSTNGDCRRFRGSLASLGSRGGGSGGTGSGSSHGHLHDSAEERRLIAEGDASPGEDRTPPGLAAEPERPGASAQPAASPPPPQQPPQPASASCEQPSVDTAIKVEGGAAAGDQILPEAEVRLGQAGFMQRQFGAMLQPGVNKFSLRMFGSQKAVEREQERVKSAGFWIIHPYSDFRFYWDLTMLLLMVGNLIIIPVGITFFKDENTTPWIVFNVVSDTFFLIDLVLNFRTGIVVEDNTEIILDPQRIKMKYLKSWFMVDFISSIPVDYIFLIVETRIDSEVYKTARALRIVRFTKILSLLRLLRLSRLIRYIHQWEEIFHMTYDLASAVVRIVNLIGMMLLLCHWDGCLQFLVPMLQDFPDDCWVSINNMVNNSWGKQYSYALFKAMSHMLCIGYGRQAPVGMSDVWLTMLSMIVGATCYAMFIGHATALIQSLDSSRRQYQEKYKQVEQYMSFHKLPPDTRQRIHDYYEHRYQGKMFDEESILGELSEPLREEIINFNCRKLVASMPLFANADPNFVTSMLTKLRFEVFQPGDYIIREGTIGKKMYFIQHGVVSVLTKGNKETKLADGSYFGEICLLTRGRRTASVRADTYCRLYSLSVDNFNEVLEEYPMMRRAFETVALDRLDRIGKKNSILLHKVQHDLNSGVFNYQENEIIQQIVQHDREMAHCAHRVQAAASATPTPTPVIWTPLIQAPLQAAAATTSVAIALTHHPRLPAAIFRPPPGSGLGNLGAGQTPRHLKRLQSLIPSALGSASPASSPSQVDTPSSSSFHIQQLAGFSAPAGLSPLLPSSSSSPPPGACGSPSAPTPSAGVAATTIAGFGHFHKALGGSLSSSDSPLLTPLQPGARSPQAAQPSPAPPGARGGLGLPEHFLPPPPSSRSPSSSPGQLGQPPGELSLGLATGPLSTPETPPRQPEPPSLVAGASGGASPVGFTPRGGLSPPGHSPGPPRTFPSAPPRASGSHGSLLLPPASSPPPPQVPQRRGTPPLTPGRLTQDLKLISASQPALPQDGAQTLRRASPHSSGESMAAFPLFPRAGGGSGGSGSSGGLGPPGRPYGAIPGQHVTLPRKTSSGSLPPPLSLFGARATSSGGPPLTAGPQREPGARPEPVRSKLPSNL
From the text: as §1

[3] = target: T3, hKv1.1 (Homo sapiens, UniProt Q09470); test: voltage clamp currents in mammalian cells stably transfected with cloned ion channel cDNA, hKv1.1; assay type: cell-based
T3 construct: expressed in transfected cells
From the text: as §1

[4] = target: T4, hKv4.3 (Homo sapiens, UniProt Q9UK17); test: voltage clamp currents in mammalian cells stably transfected with cloned ion channel cDNA, hKv4.3; assay type: cell-based
T4 construct: expressed in transfected cells
T4 sequence (Q9UK17 1-655): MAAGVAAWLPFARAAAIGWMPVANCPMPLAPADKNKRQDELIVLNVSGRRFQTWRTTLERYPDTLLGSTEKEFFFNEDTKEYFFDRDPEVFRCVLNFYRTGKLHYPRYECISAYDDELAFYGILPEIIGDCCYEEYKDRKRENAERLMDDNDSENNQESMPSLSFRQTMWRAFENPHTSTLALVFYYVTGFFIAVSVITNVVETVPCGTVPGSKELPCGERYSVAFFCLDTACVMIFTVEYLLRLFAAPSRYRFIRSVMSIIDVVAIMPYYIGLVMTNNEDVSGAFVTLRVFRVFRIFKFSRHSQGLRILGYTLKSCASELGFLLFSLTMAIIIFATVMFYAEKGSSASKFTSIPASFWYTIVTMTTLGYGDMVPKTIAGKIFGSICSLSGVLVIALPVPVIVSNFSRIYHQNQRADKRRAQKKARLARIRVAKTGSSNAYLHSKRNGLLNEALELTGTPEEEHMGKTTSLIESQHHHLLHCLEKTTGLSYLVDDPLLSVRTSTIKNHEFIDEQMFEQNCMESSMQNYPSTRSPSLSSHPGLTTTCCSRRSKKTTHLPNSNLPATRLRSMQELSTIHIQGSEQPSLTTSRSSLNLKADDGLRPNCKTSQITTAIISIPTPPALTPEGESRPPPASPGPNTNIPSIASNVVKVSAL
From the text: as §1

[5] = target: T5, hERG (Homo sapiens, UniProt Q12809); test: voltage clamp currents in mammalian cells stably transfected with cloned ion channel cDNA, hERG; assay type: cell-based
T5 construct: expressed in transfected cells
From the text: as §1

[6] = target: hNav1.5 (Homo sapiens, UniProt Q14524); test: voltage clamp currents in mammalian cells stably transfected with cloned ion channel cDNA, hNav1.5; assay type: cell-based
From the text: as §1

[7] = target: hKv1.3 (Homo sapiens, UniProt P22001); test: voltage clamp currents in mammalian cells stably transfected with cloned ion channel cDNA, hKv1.3; assay type: cell-based
From the text: as §1

[8] = target: hCav3.2 (Homo sapiens, UniProt O95180); test: cell-based
From the text: as §1

[9] = target: hCav1.2 (Homo sapiens, UniProt Q13936); test: voltage clamp currents in mammalian cells stably transfected with cloned ion channel cDNA, hCav1.2; assay type: cell-based
From the text: as §1

[10] = 0.1 Hz, read-out: Estimated IC50 at 0.1 Hz

Sequence of hCav3.2 (O95180 whole entry): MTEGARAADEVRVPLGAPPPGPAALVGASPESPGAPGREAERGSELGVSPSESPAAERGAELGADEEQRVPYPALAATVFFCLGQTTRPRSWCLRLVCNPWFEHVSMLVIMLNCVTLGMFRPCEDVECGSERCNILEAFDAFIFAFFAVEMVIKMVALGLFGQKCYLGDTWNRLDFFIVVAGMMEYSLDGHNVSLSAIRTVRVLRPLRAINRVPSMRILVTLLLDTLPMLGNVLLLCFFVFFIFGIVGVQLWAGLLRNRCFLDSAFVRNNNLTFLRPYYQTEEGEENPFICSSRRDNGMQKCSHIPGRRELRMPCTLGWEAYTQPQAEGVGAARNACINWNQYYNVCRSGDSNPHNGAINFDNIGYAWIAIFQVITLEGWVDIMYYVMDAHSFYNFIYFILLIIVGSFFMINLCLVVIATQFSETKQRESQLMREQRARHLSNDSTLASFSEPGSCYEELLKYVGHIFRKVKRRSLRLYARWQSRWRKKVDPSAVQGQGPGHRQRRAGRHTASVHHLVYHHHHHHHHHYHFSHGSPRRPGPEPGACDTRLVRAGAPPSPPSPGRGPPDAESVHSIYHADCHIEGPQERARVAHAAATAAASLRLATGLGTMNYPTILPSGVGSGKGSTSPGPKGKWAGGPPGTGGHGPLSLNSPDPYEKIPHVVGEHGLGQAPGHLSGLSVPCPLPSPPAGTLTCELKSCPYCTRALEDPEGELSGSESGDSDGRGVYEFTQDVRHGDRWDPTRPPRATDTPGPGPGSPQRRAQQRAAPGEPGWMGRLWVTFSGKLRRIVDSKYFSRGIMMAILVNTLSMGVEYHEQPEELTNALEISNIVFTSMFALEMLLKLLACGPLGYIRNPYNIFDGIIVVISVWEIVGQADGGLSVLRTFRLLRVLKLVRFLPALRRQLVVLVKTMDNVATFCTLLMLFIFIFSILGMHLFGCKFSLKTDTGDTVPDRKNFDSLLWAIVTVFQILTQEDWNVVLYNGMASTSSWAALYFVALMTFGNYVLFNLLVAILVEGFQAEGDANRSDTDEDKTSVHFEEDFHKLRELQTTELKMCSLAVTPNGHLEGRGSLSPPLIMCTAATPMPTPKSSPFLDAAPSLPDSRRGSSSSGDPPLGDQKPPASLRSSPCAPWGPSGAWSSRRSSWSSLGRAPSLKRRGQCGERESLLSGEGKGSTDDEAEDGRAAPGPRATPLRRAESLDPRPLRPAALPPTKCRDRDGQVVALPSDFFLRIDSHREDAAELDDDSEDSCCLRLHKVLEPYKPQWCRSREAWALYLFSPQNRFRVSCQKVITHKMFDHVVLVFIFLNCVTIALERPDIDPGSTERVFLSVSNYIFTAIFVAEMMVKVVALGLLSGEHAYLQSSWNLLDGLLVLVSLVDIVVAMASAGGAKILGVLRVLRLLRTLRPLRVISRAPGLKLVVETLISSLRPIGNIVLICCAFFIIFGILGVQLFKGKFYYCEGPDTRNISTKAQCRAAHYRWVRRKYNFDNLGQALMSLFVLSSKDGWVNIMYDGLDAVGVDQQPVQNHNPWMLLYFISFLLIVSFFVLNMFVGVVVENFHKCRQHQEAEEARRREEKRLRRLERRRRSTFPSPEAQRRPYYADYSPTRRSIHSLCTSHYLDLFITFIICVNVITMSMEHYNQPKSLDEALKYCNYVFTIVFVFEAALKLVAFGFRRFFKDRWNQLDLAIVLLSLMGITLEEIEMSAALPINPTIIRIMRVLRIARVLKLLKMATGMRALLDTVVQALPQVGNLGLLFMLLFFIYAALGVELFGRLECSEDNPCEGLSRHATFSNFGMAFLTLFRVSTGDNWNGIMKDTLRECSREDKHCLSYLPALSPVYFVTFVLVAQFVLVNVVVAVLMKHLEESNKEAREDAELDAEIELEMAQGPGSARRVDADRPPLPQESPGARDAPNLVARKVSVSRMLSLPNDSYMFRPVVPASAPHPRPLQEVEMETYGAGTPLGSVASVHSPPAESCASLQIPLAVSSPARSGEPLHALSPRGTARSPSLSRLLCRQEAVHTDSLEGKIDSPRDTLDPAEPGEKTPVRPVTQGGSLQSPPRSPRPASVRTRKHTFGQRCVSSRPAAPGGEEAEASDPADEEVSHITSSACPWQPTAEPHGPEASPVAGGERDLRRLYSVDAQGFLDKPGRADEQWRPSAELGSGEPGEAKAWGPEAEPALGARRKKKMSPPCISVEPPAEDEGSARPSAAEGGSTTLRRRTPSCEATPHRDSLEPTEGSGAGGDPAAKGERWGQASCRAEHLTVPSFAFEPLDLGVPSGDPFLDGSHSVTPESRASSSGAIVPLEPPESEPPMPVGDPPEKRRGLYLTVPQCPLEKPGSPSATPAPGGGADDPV
T3 sequence (Q09470 whole entry): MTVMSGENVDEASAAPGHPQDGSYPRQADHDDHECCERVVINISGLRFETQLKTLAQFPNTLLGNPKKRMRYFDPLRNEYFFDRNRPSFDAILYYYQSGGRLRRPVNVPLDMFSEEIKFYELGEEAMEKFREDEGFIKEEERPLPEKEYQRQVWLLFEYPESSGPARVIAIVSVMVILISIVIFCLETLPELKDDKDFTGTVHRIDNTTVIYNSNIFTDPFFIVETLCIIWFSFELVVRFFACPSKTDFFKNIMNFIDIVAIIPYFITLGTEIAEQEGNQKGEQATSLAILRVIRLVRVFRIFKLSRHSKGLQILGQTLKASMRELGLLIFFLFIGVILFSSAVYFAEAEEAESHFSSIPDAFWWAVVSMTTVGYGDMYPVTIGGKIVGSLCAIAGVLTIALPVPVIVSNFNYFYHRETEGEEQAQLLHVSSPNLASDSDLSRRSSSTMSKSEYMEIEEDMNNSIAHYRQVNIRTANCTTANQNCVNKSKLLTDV
Sequence of hNav1.5 (Q14524 whole entry): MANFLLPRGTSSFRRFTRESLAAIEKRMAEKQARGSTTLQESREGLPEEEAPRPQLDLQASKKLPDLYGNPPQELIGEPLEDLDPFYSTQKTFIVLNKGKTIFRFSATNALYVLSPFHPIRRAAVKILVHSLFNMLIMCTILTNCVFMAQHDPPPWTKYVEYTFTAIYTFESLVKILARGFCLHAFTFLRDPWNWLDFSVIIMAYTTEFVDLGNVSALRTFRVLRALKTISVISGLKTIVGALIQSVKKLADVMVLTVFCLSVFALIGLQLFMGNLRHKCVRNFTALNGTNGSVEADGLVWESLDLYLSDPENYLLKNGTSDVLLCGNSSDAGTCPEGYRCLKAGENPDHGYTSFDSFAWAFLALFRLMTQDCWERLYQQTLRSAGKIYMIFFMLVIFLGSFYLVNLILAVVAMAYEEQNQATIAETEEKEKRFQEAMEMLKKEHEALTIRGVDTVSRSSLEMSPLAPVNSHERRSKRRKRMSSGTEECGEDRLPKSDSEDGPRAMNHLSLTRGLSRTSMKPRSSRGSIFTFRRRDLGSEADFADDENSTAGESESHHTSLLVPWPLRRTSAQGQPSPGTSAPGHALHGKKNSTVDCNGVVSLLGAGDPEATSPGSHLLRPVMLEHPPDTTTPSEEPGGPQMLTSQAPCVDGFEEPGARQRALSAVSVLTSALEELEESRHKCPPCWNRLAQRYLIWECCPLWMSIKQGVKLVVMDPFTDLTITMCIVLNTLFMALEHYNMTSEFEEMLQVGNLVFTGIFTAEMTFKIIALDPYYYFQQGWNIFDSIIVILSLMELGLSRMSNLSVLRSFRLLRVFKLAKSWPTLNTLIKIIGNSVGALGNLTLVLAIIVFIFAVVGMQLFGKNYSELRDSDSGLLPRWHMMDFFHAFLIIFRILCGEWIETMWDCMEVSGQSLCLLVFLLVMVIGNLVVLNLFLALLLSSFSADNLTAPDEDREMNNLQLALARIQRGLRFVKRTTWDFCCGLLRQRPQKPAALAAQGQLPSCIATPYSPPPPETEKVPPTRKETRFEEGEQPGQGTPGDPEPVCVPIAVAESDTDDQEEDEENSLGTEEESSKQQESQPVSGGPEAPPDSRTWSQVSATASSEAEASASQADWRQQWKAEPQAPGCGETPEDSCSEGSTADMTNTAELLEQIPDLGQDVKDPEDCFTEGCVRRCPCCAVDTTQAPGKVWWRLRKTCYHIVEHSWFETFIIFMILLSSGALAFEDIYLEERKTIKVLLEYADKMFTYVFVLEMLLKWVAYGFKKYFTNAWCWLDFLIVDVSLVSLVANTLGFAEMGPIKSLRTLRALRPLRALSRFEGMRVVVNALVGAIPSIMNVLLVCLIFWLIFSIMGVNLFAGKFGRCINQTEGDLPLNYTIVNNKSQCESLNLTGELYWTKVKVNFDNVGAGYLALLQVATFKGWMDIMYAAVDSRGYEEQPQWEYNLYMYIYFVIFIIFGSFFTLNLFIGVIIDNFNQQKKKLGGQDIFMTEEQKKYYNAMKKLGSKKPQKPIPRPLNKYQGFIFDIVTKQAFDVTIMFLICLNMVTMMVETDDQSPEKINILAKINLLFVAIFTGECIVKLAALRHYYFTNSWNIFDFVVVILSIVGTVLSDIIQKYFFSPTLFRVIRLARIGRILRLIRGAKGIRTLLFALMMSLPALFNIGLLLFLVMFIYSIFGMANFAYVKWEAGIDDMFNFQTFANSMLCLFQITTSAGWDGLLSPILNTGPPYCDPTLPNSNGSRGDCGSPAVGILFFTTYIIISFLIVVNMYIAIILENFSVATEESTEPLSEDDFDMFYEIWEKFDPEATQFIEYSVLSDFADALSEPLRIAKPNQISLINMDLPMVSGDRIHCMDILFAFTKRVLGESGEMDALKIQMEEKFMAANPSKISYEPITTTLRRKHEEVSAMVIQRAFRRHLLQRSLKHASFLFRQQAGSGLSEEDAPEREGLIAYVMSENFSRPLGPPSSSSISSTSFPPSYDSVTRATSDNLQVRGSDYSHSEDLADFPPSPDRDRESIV

- % Block at 10 μM/0.1 Hz ([1]; 10 μM): 4.6%
- IC50 [1, 10]: 207 µM
- % Block at 10 μM/0.1 Hz ([2]; 10 μM): 20.3%
- IC50 [2, 10]: 30.3 µM
- % Block at 10 μM/0.1 Hz ([3]; 10 μM): 1.9%
- IC50 [3, 10]: 516 µM
- % Block at 10 μM/0.1 Hz ([4]; 10 μM): 0.5%
- IC50 [4, 10]: 1990 µM
- % Block at 10 μM/0.1 Hz ([7]; 10 μM): 17.6%
- IC50 [7, 10]: 46.8 µM
- IC50 ([8]; Estimated IC50 at 0.1 Hz, 0.1 Hz): 10.2 µM
- IC50 ([8]; Estimated IC50 at 3 Hz, 3 Hz): 1.22 µM
Structure (SMILES): O=c1[nH]c2ccccc2n1CCCN1CCC(n2c(=O)[nH]c3cc(Cl)ccc32)CC1 [domperidone, 1,3-dihydro-5-chloro-1-(1-(3-(2,3-dihydro-2-oxo-1H-benzimidazol-1-yl)propyl)-4-piperidinyl)-2H-benzimidazol-2-one]
- % Block at 1 μM/3 Hz ([5]; 1 μM, 3 Hz): 98.0%
- % Block at 10 μM/0.1 Hz ([5]; 10 μM, 0.1 Hz): 95.5%
- % Block at 1 μM/3 Hz ([6]; 1 μM, 3 Hz): 23.7%
- % Block at 10 μM/0.1 Hz ([6]; 10 μM, 0.1 Hz): 37.3%
- % Block at 1 μM/3 Hz ([9]; 1 μM, 3 Hz): 49.6%
- % Block at 10 μM/0.1 Hz ([9]; 10 μM, 0.1 Hz): 9%

From patent publication US20090143434A1 (priority 2007, published 2009)
